Source: US9295669B2, “Combination therapy for proliferative disorders” (Hoffman La-Roche Inc., priority 2010, dated 2016)
Where two headings read alike, the source gives them in different places.

Assays:
[1] = tested on: human LOX-IMVI melanoma cell xenografts; experiment: Assessment of survival (increased life span) in mice with human LOX-IMVI melanoma xenografts; format: in vivo; settings: monotherapy; for 50% Treatment Days (median survival day of treated group): 50% vehicle days 14; for % ILS (increased life span): versus vehicle group
Protocol: (§1) Mice were implanted with human LOX-IMVI melanoma cell xenografts. The mice, cell line used, and implantation are described below.
(§2) Female athymic Crl:NU-Foxn1nu mice were used for efficacy testing (Charles River, Wilmington, Mass., USA). Mice were 10-12 weeks of age and weighed 23-25 grams. The health of the mice was assessed daily by observation and analysis of blood samples taken from sentinel animals on shared shelf racks. All animals were allowed to acclimate and recover from shipping-related stress for one week. Autoclaved water and irradiated food (5058-ms Pico Lab mouse chow, Purina Mills, Richmond, Ind., USA) were provided ad libitum, and the animals were kept in a 12 hour light and dark cycle. Cages, bedding and water bottles were autoclaved before use and changed weekly. All animal experiments were conducted in accordance with the Guide for the Care and Use of Laboratory Animals, local regulations, and protocols approved by the Roche Animal Care and Use Committee in our AAALAC accredited facility.
(§3) LOX-IMVI cells (aka LOX, National Cancer Institute—Bethesda, Md.) were grown in RPMI-1640 medium supplemented with 10% Fetal Bovine Serum (FBS) and 1% of […] L-glutamine, scaled up, harvested, and prepared so that each mouse received 2×10^6 cells/0.2 ml calcium and magnesium free phosphate-buffered saline (PBS). Cells were implanted in the subcutaneous right flank of each mouse.
(§4) Mice implanted with human xenografts were randomized into eight groups of 10 mice each according to tumor volume so that all groups had similar starting mean tumor volumes. The approximate starting mean tumor volume for this study was 130 mm^3.
(§5) Treatment began on day 5 post-cell implant and ended at day 18 post-cell implant. Four groups of mice developed in example 3 were used. Each group was subjected to a different therapy as follows: • (1) mice receiving Compound I vehicle bid po and peginterferon alfa-2a vehicle 1×/wk sc; • (2) mice receiving Compound I at 75 mg/kg bid bid po; • (3) mice receiving peginterferon alfa-2a at 900 μg 1×/wk sc; and • (4) mice receiving Compound I at 75 mg/kg bid bid po and peginterferon alfa-2a at 900 μg 1×/wk sc.
(§6) The Compound I suspension and its corresponding vehicle were dosed using a sterile 1 cc syringe and 18-gauge gavage needle (0.2 ml/animal) twice daily. The peginterferon alfa-2a solution and its corresponding vehicle were dosed using a sterile 1 cc syringe and 26-gauge needle (0.2 ml/animal) once weekly on days 5 and 12 post-cell implant for a total of two injections.
For survival assessment, the percent of increased life space (ILS) was calculated as: 100×[(median survival day of treated group−median survival day of control group)/median survival day of control group]. Median survival was determined utilizing Kaplan Meier survival analysis. Survival in treated groups was statistically compared with the vehicle group and survival comparisons were done between groups using the log-rank test (Graph Pad Prism, La Jolla, Calif., USA). Differences between groups were considered significant when the probability value (p) was ≦0.05.
Treatment began on day 6 post-cell implant and ended at day 19 post-cell implant. Four groups of mice developed in example 3 were used. The treatment groups were as follows: • (1) mice receiving Compound I vehicle bid po and peginterferon alfa-2a vehicle 1×/wk sc; • (2) mice receiving Compound I at 25 mg/kg bid po; • (3) mice receiving peginterferon alfa-2a at 450 μg 1×/wk sc; and • (4) mice receiving Compound I at 25 mg/kg bid and peginterferon alfa-2a at 450 μg 1×/wk.
The Compound I suspension and its corresponding vehicle were dosed using a sterile 1 cc syringe and 18-gauge gavage needle (0.2 ml/animal) twice daily. The peginterferon alfa-2a solution and its corresponding vehicle were dosed using a sterile 1 cc syringe and 26-gauge needle (0.2 ml/animal) once weekly on days 6 and 13 post-cell implant for a total of two injections.

[2] = tested on: human LOX-IMVI melanoma cell xenografts; experiment: Tumor growth inhibition in mice with human LOX-IMVI melanoma xenografts; format: in vivo; settings: monotherapy; for % Inhibition end of study Day: 19 / % T/C end of study Day: 19 / % Tumor Growth Inhibition / Average % Regression per Group / Mean Tumor Volume End Study DAY: 19 / % Inhibition end of study Day: 18 / % T/C end of study Day: 18 / Mean Tumor Volume End Study DAY: 18: 10 mice; for Complete Regression / Partial Regression: animals out of 10 per group
Protocol: as §1, §2, §3, §4, §5, §6
Tumor measurements were taken once or twice per week. All animals were individually followed throughout the experiment.
Efficacy data was graphically represented as the mean tumor volume±standard error of the mean (SEM). In addition, tumor volumes of treated groups were presented as percentages of tumor volumes of the control groups (% T/C), using the formula: 100×((T−T0)/(C−C0)), where T represented mean tumor volume of a treated group on a specific day during the experiment, T0 represented mean tumor volume of the […] on the first day of treatment; C represented mean tumor volume of a control group on the specific day during the experiment, and Co represented mean tumor volume of the […] on the first day of treatment.
Tumor volume (in cubic millimeters) was calculated using the ellipsoid formula: (D×(d^2))/2, where “D” represents the large diameter of the tumor and “d” represents the small diameter.
Also, tumor regression and/or percent change in tumor volume was calculated using the formula: ((T−T0)/T0)×100, where ‘T’ represents mean tumor volume of the treated group at a particular day, and ‘T0’ represents mean tumor volume of the same treated group at initiation of treatment.
Statistical analysis was determined by the rank sum test and One Way Anova and a post-hoc Bonferroni t-test (SigmaStat, version 2.0, Jandel Scientific, San Francisco, Calif., USA). […]

[3] = format: in vivo; settings: monotherapy, 10 mice
Protocol: as §2, with “Autoclaved water and irradiated food (5058-ms Pico Lab mouse chow, Purina Mills, Richmond, Ind., USA) were provided ad libitum, and the animals were kept in a 12 hour light and dark cycle.” left out
Treatment began on day 5 post-cell implant and ended at day 18 post-cell implant.
The peginterferon alfa-2a solution and its corresponding vehicle were dosed using a sterile 1 cc syringe and 26-gauge needle (0.2 ml/animal) once weekly on days 5 and 12 post-cell implant for a total of two injections.
Weight loss was graphically represented as percent change in mean group body weight, using the formula: ((W−W0)/W0)×100, where ‘W’ represents mean body weight of the treated group at a particular day, and ‘W0’ represents mean body weight of the same treated group at initiation of treatment.
Treatment began on day 6 post-cell implant and ended at day 19 post-cell implant.
The peginterferon alfa-2a solution and its corresponding vehicle were dosed using a sterile 1 cc syringe and 26-gauge needle (0.2 ml/animal) once weekly on days 6 and 13 post-cell implant for a total of two injections.

[4] = peginterferon alfa-2a 450 μg 1×/wk sc (days 6 and 13)
[5] = peginterferon alfa-2a 900 μg 1×/wk sc (days 5 and 12)
[6] = Compound I 25 mg/kg bid po, days 6-19 post-cell implant
[7] = Compound I 75 mg/kg bid po, days 5-18 post-cell implant

Peginterferon alfa-2a
50% Treatment Days (median survival day of treated group) [1, 4]: 30 days
% ILS (increased life span) [1, 4]: 114%
50% Treatment Days (median survival day of treated group) [1, 5]: 34 days
% ILS (increased life span) [1, 5]: 143%
% Inhibition end of study Day: 19 [2, 4]: regression
% T/C end of study Day: 19 [2, 4]: 0%
% Tumor Growth Inhibition [2, 4]: >100%
Average % Regression per Group [2, 4]: 6%
Mean Tumor Volume End Study DAY: 19 [2, 4]: 122.93 mm^3
Complete Regression [2, 4]: 1
Partial Regression [2, 4]: 6
% Inhibition end of study Day: 18 [2, 5]: 98%
% T/C end of study Day: 18 [2, 5]: 2%
% Tumor Growth Inhibition [2, 5]: 98%
Mean Tumor Volume End Study DAY: 18 [2, 5]: 193.98 mm^3
Complete Regression [2, 5]: 3
Partial Regression [2, 5]: 2
# animals ≧ 20% BWL [3, 4]: 0
% Change in Body Weight at end of Study Day 19 [3, 4]: 8.1%
Max % Weight Gain [3, 4]: 8.1%
Max % Weight Loss [3, 4]: 3.7%
Mortality [3, 4]: 0
# animals ≧ 20% BWL [3, 5]: 0
% Change in Body Weight at end of Study Day 18 [3, 5]: 2.7%
Max % Weight Gain [3, 5]: 2.7%
Max % Weight Loss [3, 5]: 0.7%
Mortality [3, 5]: 0

CCCS(=O)(=O)Nc1ccc(F)c(C(=O)c2c[nH]c3ncc(-c4ccc(Cl)cc4)cc23)c1F [Compound I, Propane-1-sulfonic acid{3-[5-(4-chloro-phenyl)-1H-pyrrolo[2,3-b]pyridine-3-carbonyl]-2,4-difluoro-phenyl}-amide]
50% Treatment Days (median survival day of treated group) [1, 6]: 59 days
% ILS (increased life span) [1, 6]: 321%
50% Treatment Days (median survival day of treated group) [1, 7]: 504 days
% ILS (increased life span) [1, 7]: 3500%
% Inhibition end of study Day: 19 [2, 6]: regression
% T/C end of study Day: 19 [2, 6]: −5%
Average % Regression per Group [2, 6]: 100%
Mean Tumor Volume End Study DAY: 19 [2, 6]: 0.00 mm^3
Complete Regression [2, 6]: 10
Partial Regression [2, 6]: 0
% Inhibition end of study Day: 18 [2, 7]: regression
% T/C end of study Day: 18 [2, 7]: −4%
Average % Regression per Group [2, 7]: 100%
Mean Tumor Volume End Study DAY: 18 [2, 7]: 0.00 mm^3
Complete Regression [2, 7]: 10
Partial Regression [2, 7]: 0
# animals ≧ 20% BWL [3, 6]: 0
% Change in Body Weight at end of Study Day 19 [3, 6]: 1.3%
Max % Weight Gain [3, 6]: 1.3%
Max % Weight Loss [3, 6]: −1.0%
Mortality [3, 6]: 0
# animals ≧ 20% BWL [3, 7]: 0
% Change in Body Weight at end of Study Day 18 [3, 7]: −7.0%
Max % Weight Gain [3, 7]: −3.6%
Max % Weight Loss [3, 7]: −7.0%
Mortality [3, 7]: 0
